# From patent US5721223A, “Imidazo[1,2-a] Pyridinyldiacid compounds for cognitive enhancement and for treatment of cognitive disorders and neurotoxic injury” (priority 1995, dated 1998)
# Where a name gives a salt, the structure may show the parent alone.
# Biological target: T1, glycine receptor site (Rattus norvegicus, UniProt P35439)
# T1 construct: Synaptic plasma membranes (SPM) were prepared from rat forebrain; from tissue; host or cells: rat forebrain synaptic plasma membranes
# Assay: Glycine binding assay ([3H]GLY)
# Conditions: [3H]glycine 10 nM, rat forebrain SPM
# Method: Synaptic plasma membranes (SPM) were prepared from rat forebrain and stored as previously described [J. B. Monahan and J. Michel, J. Neurochem, 48, 1699-1708 (1987)]. Frozen membranes were thawed and diluted 1:20 with 0.04% Triton X-100 in 50 mM tris/acetate (pH 7.4). Following incubation at 37° C. for 30 min., the SPM were collected by centrifugation at 95,000×g for 15 min. The pellet was resuspended in 50 mM tris/acetate (pH 7.4, Triton-free) and hand-homogenized five times. The membranes were again centrifuged as above. The pellet was washed two additional times with 50 mM tris/acetate (without homogenization) and centrifuged. The final pellet was resuspended with homogenization in 50 mM tris/acetate. In the general receptor binding assay procedure, 10 nM [3H]glycine was added to the appropriate concentration of the test compounds and the assay initiated by the addition of 0.2-0.4 mg of ice cold SPM. […] Beckman MP scintillation cocktail (5 mL) containing 7 mL/liter acetic acid was then added and the samples counted on a Beckman LS 5800 liquid scintillation counter with automatic corrections for quenching and counting efficiency. […] The binding of [3H]glycine to the SPM was analyzed using Scatchard and Hill transformations and the Ki for other compounds was determined using logit-log analysis. […]
smiles,measurement,value
"O=C(O)Cc1c(C(=O)O)nc2ccccn12 [Example 3, hydrochloride]",Ki,51 µM
